Assay results as given in US9284321B2, “Piperazino[1,2-a]indol-1-ones and [1,4]diazepino[1,2-a]indol-1-one” (Hoffmann-La Roche Inc., priority 2012, dated 2016).

Legend:
[1] = tested on: human embryonic stem cell derived neural stem cells (NSCs); assay: Neural Stem Cell Proliferation Assay (neurogenesis assay, ATP levels by CellTiterGlo); type: cell-based; conditions: 96 h, compound concentration at which 150% activity of control (100%) is reached, NSC proliferation by ATP level after 4 days incubation, dose response 8 μM to 8 nM
Procedure, shortened: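 Read-out is CellTiterGlo ATP luminescence after 4-day culture (37 °C, 5% CO2) of dual-SMAD-derived human ESC NSCs, dosed 4 h post-seeding at 8 μM to 8 nM (11 points, 2-fold). EC150 marks the concentration reaching 150% of the media-only control (0.25% DMSO).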

SMILES | melting point | EC (150% of control) [1]
Cc1c2n(c3c(-c4cc(F)cc(F)c4)cc(F)cc13)CCNC2=O [Example 84, 6-(3,5-Difluoro-phenyl)-8-fluoro-10-methyl-3,4-dihydro-2H-pyrazino[1,2-a]indol-1-one] | 250 °C | 0.15 µM
Cc1c2n(c3c(-c4ccc(Cl)c(F)c4)cc(F)cc13)CCNC2=O [Example 85, 6-(4-Chloro-3-fluoro-phenyl)-8-fluoro-10-methyl-3,4-dihydro-2H-pyrazino[1,2-a]indol-1-one] | 216 °C | 0.04 µM
Cc1c2n(c3c(-c4ccc(Cl)c(Cl)c4)cc(F)cc13)CCNC2=O [Example 86, 6-(3,4-Dichloro-phenyl)-8-fluoro-10-methyl-3,4-dihydro-2H-pyrazino[1,2-a]indol-1-one] | 224 °C | 0.05 µM
Cc1c2n(c3c(-c4cccc(F)c4)cc(F)cc13)CCNC2=O [Example 87, 8-Fluoro-6-(3-fluoro-phenyl)-10-methyl-3,4-dihydro-2H-pyrazino[1,2-a]indol-1-one] | 222 °C | 0.1 µM
Cc1c2n(c3c(-c4ccccc4)cc(Cl)cc13)CCNC2=O [Example 88, 8-Chloro-10-methyl-6-phenyl-3,4-dihydro-2H-pyrazino[1,2-a]indol-1-one] | 230.5 °C | 0.053 µM
Cc1ccc(-c2cc(Cl)cc3c(C)c4n(c23)CCNC4=O)cc1 [Example 89, 8-Chloro-10-methyl-6-p-tolyl-3,4-dihydro-2H-pyrazino[1,2-a]indol-1-one] | 251.5 °C | 0.01 µM
Cc1c2n(c3c(-c4ccc(C(F)(F)F)cc4)cc(Cl)cc13)CCNC2=O [Example 90, 8-Chloro-10-methyl-6-(4-trifluoromethyl-phenyl)-3,4-dihydro-2H-pyrazino[1,2-a]indol-1-one] | 260.5 °C | 0.017 µM
Cc1c2n(c3c(-c4ccncc4)cc(Cl)cc13)CCNC2=O [Example 91, 8-Chloro-10-methyl-6-pyridin-4-yl-3,4-dihydro-2H-pyrazino[1,2-a]indol-1-one] | 295 °C | 0.017 µM
N#Cc1cc(-c2ccncc2)c2c(c1)cc1n2CCNC1=O [Example 92, 1-Oxo-6-pyridin-4-yl-1,2,3,4-tetrahydro-pyrazino[1,2-a]indole-8-carbonitrile] | 315.5 °C | 0.047 µM
N#Cc1cc(-c2ccccc2)c2c(c1)cc1n2CCNC1=O [Example 93, 1-Oxo-6-phenyl-1,2,3,4-tetrahydro-pyrazino[1,2-a]indole-8-carbonitrile] | 265.5 °C | 0.035 µM
Cc1ccc(-c2cc(C#N)cc3cc4n(c23)CCNC4=O)cc1 [Example 94, 1-Oxo-6-p-tolyl-1,2,3,4-tetrahydro-pyrazino[1,2-a]indole-8-carbonitrile] | 285.5 °C | 0.011 µM
N#Cc1cc(-c2ccc(C(F)(F)F)cc2)c2c(c1)cc1n2CCNC1=O [Example 95, 1-Oxo-6-(4-trifluoromethyl-phenyl)-1,2,3,4-tetrahydro-pyrazino[1,2-a]indole-8-carbonitrile] | 359 °C | 0.018 µM
Cc1c2n(c3c(-c4cccc(F)c4)cc(Cl)cc13)CCNC2=O [Example 96, 8-Chloro-6-(3-fluoro-phenyl)-10-methyl-3,4-dihydro-2H-pyrazino[1,2-a]indol-1-one] | 239 °C | 0.15 µM
Cc1c2n(c3c(-c4ccc(Cl)c(Cl)c4)cc(Cl)cc13)CCNC2=O [Example 97, 8-Chloro-6-(3,4-dichloro-phenyl)-10-methyl-3,4-dihydro-2H-pyrazino[1,2-a]indol-1-one] | 240 °C | 0.056 µM
Cc1c2n(c3c(-c4ccc(Cl)c(F)c4)cc(Cl)cc13)CCNC2=O [Example 98, 8-Chloro-6-(4-chloro-3-fluoro-phenyl)-10-methyl-3,4-dihydro-2H-pyrazino[1,2-a]indol-1-one] | 242.5 °C | 0.019 µM
Cc1c2n(c3c(-c4cc(F)cc(F)c4)cc(Cl)cc13)CCNC2=O [Example 99, 8-Chloro-6-(3,5-difluoro-phenyl)-10-methyl-3,4-dihydro-2H-pyrazino[1,2-a]indol-1-one] | 241 °C | 0.12 µM
Cc1c2n(c3c(-c4ccc(F)cc4F)cc(Cl)cc13)CCNC2=O [Example 100, 8-Chloro-6-(2,4-difluoro-phenyl)-10-methyl-3,4-dihydro-2H-pyrazino[1,2-a]indol-1-one] | 238 °C | 0.009 µM
Cc1c2n(c3c(-c4ccc(Cl)cc4F)cc(Cl)cc13)CCNC2=O [Example 101, 8-Chloro-6-(4-chloro-2-fluoro-phenyl)-10-methyl-3,4-dihydro-2H-pyrazino[1,2-a]indol-1-one] | 251.5 °C | 0.006 µM

SMILES | melting point | EC (150% of control) [1]
Cc1c2n(c3c(-c4ccc(Cl)cc4Cl)cc(Cl)cc13)CCNC2=O [Example 102, 8-Chloro-6-(2,4-dichloro-phenyl)-10-methyl-3,4-dihydro-2H-pyrazino[1,2-a]indol-1-one] | 213 °C | 0.009 µM
Cc1c2n(c3c(-c4ccc5c(c4)OCO5)cc(Cl)cc13)CCNC2=O [Example 103, 6-Benzo[1,3]dioxol-5-yl-8-chloro-10-methyl-3,4-dihydro-2H-pyrazino[1,2-a]indol-1-one] | 244.5 °C | 0.018 µM
Cc1c2n(c3c(-c4ccc(C#N)cc4)cc(Cl)cc13)CCNC2=O [Example 104, 4-(8-Chloro-10-methyl-1-oxo-1,2,3,4-tetrahydro-pyrazino[1,2-a]indol-6-yl)-benzonitrile] | 290 °C | 0.015 µM
Cc1ccc(-c2cc(Cl)cc3c(C)c4n(c23)CCNC4=O)cc1F [Example 105, 8-Chloro-6-(3-fluoro-4-methyl-phenyl)-10-methyl-3,4-dihydro-2H-pyrazino[1,2-a]indol-1-one] | 225 °C | 0.029 µM
Cc1c2n(c3c(-c4ccc(C(C)C)cc4)cc(Cl)cc13)CCNC2=O [Example 106, 8-Chloro-6-(4-isopropyl-phenyl)-10-methyl-3,4-dihydro-2H-pyrazino[1,2-a]indol-1-one] | 194.5 °C | 0.05 µM
Cc1c2n(c3c(-c4ccc(S(C)(=O)=O)cc4)cc(Cl)cc13)CCNC2=O [Example 107, 8-Chloro-6-(4-methanesulfonyl-phenyl)-10-methyl-3,4-dihydro-2H-pyrazino[1,2-a]indol-1-one] | 321.5 °C | 0.027 µM
Cc1c2n(c3c(-c4ccnc(F)c4)cc(Cl)cc13)CCNC2=O [Example 108, 8-Chloro-6-(2-fluoro-pyridin-4-yl)-10-methyl-3,4-dihydro-2H-pyrazino[1,2-a]indol-1-one] | 290.5 °C | 0.021 µM
Cc1c2n(c3c(-c4ccc([N+](=O)[O-])cc4)cc(Cl)cc13)CCNC2=O [Example 109, 8-Chloro-10-methyl-6-(4-nitro-phenyl)-3,4-dihydro-2H-pyrazino[1,2-a]indol-1-one] | 313.5 °C | 0.007 µM
Cc1c2n(c3c(-c4ccc(CO)cc4)cc(Cl)cc13)CCNC2=O [Example 110, 8-Chloro-6-(4-hydroxymethyl-phenyl)-10-methyl-3,4-dihydro-2H-pyrazino[1,2-a]indol-1-one] | 211 °C | 0.014 µM
COc1ccc(-c2cc(Cl)cc3c(C)c4n(c23)CCNC4=O)cn1 [Example 111, 8-Chloro-6-(6-methoxy-pyridin-3-yl)-10-methyl-3,4-dihydro-2H-pyrazino[1,2-a]indol-1-one] | 196 °C | 0.015 µM
Cc1c2n(c3c(-c4ccc(Cl)nc4)cc(Cl)cc13)CCNC2=O [Example 112, 8-Chloro-6-(6-chloro-pyridin-3-yl)-10-methyl-3,4-dihydro-2H-pyrazino[1,2-a]indol-1-one] | 276 °C | 0.012 µM
Cc1c2n(c3c(-c4ccc(N(C)C)cc4)cc(Cl)cc13)CCNC2=O [Example 113, 8-Chloro-6-(4-dimethylamino-phenyl)-10-methyl-3,4-dihydro-2H-pyrazino[1,2-a]indol-1-one] | 227 °C | 0.01 µM
Cc1c2n(c3c(-c4ccc(F)nc4)cc(Cl)cc13)CCNC2=O [Example 114, 8-Chloro-6-(6-fluoro-pyridin-3-yl)-10-methyl-3,4-dihydro-2H-pyrazino[1,2-a]indol-1-one] | 270 °C | 0.04 µM
Cc1c2n(c3c(-c4cccc(Cl)c4)cc(Cl)cc13)CCNC2=O [Example 115, 8-Chloro-6-(3-chloro-phenyl)-10-methyl-3,4-dihydro-2H-pyrazino[1,2-a]indol-1-one] | 218.5 °C | 0.43 µM
Cc1c2n(c3c(-c4ccc5c(c4)CCO5)cc(Cl)cc13)CCNC2=O [Example 116, 8-Chloro-6-(2,3-dihydro-benzofuran-5-yl)-10-methyl-3,4-dihydro-2H-pyrazino[1,2-a]indol-1-one] | 261 °C | 0.055 µM
Cc1c2n(c3c(-c4cccc(C#N)c4)cc(Cl)cc13)CCNC2=O [Example 117, 3-(8-Chloro-10-methyl-1-oxo-1,2,3,4-tetrahydro-pyrazino[1,2-a]indol-6-yl)-benzonitrile] | 199 °C | 0.4 µM
Cc1c2n(c3c(-c4ccc(C(C)(C)C)cc4)cc(Cl)cc13)CCNC2=O [Example 118, 6-(4-tert-Butyl-phenyl)-8-chloro-10-methyl-3,4-dihydro-2H-pyrazino[1,2-a]indol-1-one] | 252 °C | 0.15 µM
